Measured values as given in patent US7354726B2, “Screening method” (Takeda Pharmaceutical Company Limited, priority 2001, dated 2008).

Assays:
TGR5 [1] = target: T1, TGR5 (Homo sapiens, UniProt Q8TDU6); assay: cAMP production in TGR5 expressing CHO cells (CHO-TGR5); assay type: cell-based; design: expressed in transfected cells; settings: CHO-TGR5, 20 minutes; potency in order TLCA, LCA, DCA, CDCA, CA
T1 sequence (Q8TDU6 1-330): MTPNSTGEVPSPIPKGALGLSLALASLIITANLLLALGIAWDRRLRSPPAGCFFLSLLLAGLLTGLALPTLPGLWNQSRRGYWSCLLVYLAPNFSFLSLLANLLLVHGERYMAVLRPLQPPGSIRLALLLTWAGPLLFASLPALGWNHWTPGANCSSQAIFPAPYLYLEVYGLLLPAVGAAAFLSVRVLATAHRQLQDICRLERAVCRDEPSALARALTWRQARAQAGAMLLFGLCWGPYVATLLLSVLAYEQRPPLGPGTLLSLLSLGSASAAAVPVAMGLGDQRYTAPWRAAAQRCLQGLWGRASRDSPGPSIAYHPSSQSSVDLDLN
Description: The cells were washed twice with assay buffer (DMEM supplemented with 0.1% bovine serum albumin and 0.2 mM 3-isobutyl-1-methylxanthine (IBMX)) and preincubated for 30 minutes. After washing the cells twice, a sample diluted with assay buffer was added to the cells, and the cells were incubated for 20 minutes. The culture supernatant was discarded, and by cAMP Screen System (ABI), cAMP production level was measured. […] The cAMP production level was represented by % for positive control as 100%.

rabbit TGR5 = target: T2, rabbit TGR5 (Oryctolagus cuniculus, UniProt Q862A8); assay: CRE-luciferase reporter assay in CHO-mock cells co-expressing Gi and rabbit TGR5; assay type: cell-based; settings: 10 μM bile acid, rabbit TGR5, versus group with no bile acid (Base)
T2 construct: expressed in transfected cells; host or cells: CHO-mock cells, transient, with Gi plasmid and reporter plasmid
T2 sequence (Q862A8 1-330): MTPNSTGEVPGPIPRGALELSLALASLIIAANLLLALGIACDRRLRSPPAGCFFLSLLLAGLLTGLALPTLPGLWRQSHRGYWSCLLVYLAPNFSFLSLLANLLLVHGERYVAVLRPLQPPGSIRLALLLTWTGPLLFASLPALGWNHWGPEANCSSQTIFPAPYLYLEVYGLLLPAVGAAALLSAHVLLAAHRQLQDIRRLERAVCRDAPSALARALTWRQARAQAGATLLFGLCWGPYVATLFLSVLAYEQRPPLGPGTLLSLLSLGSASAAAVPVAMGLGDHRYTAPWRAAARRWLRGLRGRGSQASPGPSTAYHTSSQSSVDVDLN
Description: (§1) Alternatively, an assay under condition wherein forskolin was added to the assay buffer at the final concentration of 2 μM, was performed in the same way. […] After completion of incubation, the assay buffer was removed from each well. Then 50 μl of luminescent substrate for PicaGene LT2.0 (Toyo Ink) was added to each well.
(§2) The mixing ratio of these three plasmids is, where the total volume is 11 μl, appropriate for 1 to 6, preferably 1 to 3 of Gi.
(§3) For a positive control of reporter gene expression, forskolin (FSSK, 2 μM) was used.

mouse TGR5 = target: T3, mouse TGR5 (Mus musculus, UniProt Q80SS6); assay: CRE-luciferase reporter assay in CHO-mock cells co-expressing Gi and mouse TGR5; assay type: cell-based; settings: 10 μM bile acid, mouse TGR5, versus group with no bile acid (Base)
T3 construct: expressed in transfected cells; host or cells: CHO-mock cells, transient, with Gi plasmid and reporter plasmid
T3 sequence (Q80SS6 1-329): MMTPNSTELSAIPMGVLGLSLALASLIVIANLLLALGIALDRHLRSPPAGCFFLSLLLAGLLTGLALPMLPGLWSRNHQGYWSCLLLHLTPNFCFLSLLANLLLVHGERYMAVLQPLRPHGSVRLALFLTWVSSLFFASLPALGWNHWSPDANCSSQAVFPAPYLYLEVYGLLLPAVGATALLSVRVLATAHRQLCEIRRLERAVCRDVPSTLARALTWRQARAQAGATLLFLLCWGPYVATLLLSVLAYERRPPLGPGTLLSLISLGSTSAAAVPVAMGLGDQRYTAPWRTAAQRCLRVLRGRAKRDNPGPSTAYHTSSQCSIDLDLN
Description: as §1, §2, §3

TGR5 [2] = target: T1, TGR5; assay: CRE-luciferase reporter assay in CHO-mock cells co-expressing Gi and human TGR5; assay type: cell-based; design: expressed in transfected cells; host or cells: CHO-mock cells (CHO(dhfr-) transformed with pAKKO-111H), transient, with Gi plasmid and reporter plasmid; settings: 10 μM bile acid, human TGR5, versus group with no bile acid (Base)
Description: as §1, §2, §3

bovine TGR5 = target: T4, bovine TGR5 (Bos taurus, UniProt Q862A9); assay: CRE-luciferase reporter assay in CHO-mock cells co-expressing Gi and bovine TGR5; assay type: cell-based; settings: 10 μM bile acid, bovine TGR5, versus group with no bile acid (Base)
T4 construct: expressed in transfected cells; host or cells: CHO-mock cells, transient, with Gi plasmid and reporter plasmid
T4 sequence (Q862A9 1-329): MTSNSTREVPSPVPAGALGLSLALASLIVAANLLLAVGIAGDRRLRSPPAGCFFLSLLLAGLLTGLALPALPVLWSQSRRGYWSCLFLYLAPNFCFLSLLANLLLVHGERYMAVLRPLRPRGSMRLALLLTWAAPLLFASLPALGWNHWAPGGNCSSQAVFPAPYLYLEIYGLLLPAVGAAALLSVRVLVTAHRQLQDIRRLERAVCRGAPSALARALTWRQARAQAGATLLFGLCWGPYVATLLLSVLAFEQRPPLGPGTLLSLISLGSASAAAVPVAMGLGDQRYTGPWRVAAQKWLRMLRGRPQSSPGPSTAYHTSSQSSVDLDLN
Description: as §1, §2, §3

rat TGR5 = target: T5, rat TGR5 (Rattus norvegicus, UniProt Q80T02); assay: CRE-luciferase reporter assay in CHO-mock cells co-expressing Gi and rat TGR5; assay type: cell-based; settings: 10 μM bile acid, rat TGR5, versus group with no bile acid (Base)
T5 construct: expressed in transfected cells; host or cells: CHO-mock cells, transient, with Gi plasmid and reporter plasmid
T5 sequence (Q80T02 1-329): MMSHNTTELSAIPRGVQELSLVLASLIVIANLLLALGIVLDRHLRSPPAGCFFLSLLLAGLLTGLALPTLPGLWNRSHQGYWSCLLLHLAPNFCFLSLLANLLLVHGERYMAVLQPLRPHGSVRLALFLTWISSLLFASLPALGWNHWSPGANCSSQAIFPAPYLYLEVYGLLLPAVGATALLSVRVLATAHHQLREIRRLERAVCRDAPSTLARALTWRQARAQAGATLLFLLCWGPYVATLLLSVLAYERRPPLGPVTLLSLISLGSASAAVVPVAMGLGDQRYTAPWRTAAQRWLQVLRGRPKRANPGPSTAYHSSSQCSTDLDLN
Description: as §1, §2, §3

[3] = tested on: rabbit alveolus macrophage; assay: Phagocytotic activity of rabbit alveolus macrophage (yeast uptake, fuchsin staining); settings: 100 μM, 16 hours
Description: From rabbit (NZW, female, approximately 2.5 to 3.0 kg of weight), under anesthesia, serum and lung were collected. By washing with PBS (phosphate-buffered saline) transfused through trachea, suspension containing alveolus macrophage in the lung was recovered. After washing the obtained cells with further PBS, the cells were suspended in medium (DMEM supplemented with 2% FBS, 0.1 mM non-essential amino acids, 50 μg/ml streptomycin, 50 U/ml penicillin and 50 μg/ml gentamicin; any component from GibcoBRL), loaded on Ficoll-Paque Plus (Amersham Pharmacia), isolator for mononuclear cells, and treated with centrifugation to remove erythrocyte. […] Then the cells were further cultured for 16 hours. Fifty μl of serum obtained from the same rabbit, and 0.8×10^8/ml of yeast suspension sterilized by heating, were added to the culture. Subsequently, the cell were cultured under 5% CO2 for 40 minutes. After adding 60 μl of 0.1% fuchsin solution (Wako Pure Chemicals) to the culture, the cells were peeled and were centrifuged. The suspension was observed by microscope.

| Structure (SMILES) | cAMP production (TGR5 [1]) | luciferase activity (reporter gene expression level) (rabbit TGR5) | luciferase activity (reporter gene expression level) (mouse TGR5) | luciferase activity (reporter gene expression level) (TGR5 [2]) | luciferase activity (reporter gene expression level) (bovine TGR5) | luciferase activity (reporter gene expression level) (rat TGR5) | phagocytotic activity of macrophage [3] |
| --- | --- | --- | --- | --- | --- | --- | --- |
| C[C@H](CCC(=O)O)[C@H]1CC[C@H]2[C@@H]3[C@H](O)C[C@@H]4C[C@H](O)CC[C@]4(C)[C@H]3C[C@H](O)[C@]12C [CA, cholic acid] | increase of cAMP production, which is dependent on concentration |  |  |  |  |  |  |
| C[C@H](CCC(=O)O)[C@H]1CC[C@H]2[C@@H]3[C@H](O)C[C@@H]4C[C@H](O)CC[C@]4(C)[C@H]3CC[C@]12C [CDCA, chenodeoxycholic acid] | increase of cAMP production, which is dependent on concentration | higher luciferase activity than that of a group with no bile acid | higher luciferase activity than that of a group with no bile acid | higher luciferase activity than that of a group with no bile acid | higher luciferase activity than that of a group with no bile acid | higher luciferase activity than that of a group with no bile acid |  |
| C[C@H](CCC(=O)NCC(=O)O)[C@H]1CC[C@H]2[C@@H]3CC[C@@H]4C[C@H](O)CC[C@]4(C)[C@H]3CC[C@]12C [GLCA, glycolithocholic acid] |  |  |  |  |  |  | significantly decreased |
